Assay results reported in ChEMBL document CHEMBL5365439, “Development of a Selective Peptide κ-Opioid Receptor Antagonist by Late-Stage Functionalization with Cysteine Staples” (J Med Chem, 2023).
Calls of active or inactive are those of the source. The calls are words filed in the database; no cut-off is given here. Numbered stars: 1 amine (or outer) side, 2 acyl side, 3 side chain; on linkers, the order of the positions; unused ones are H or OH. Bridge positions count the residues as written; N and C are the ends. Square brackets hold non-standard residues; d marks the D form. Peptide text beside a SMILES is read from it. CH2COCH2 = O=C(C[*:1])C[*:2]; CH2 = C([*:1])[*:2]; Mpa = O=C(O)CCS

What was measured:
[1] = Stability in human serum assessed as degradation at 3 mg/ml measured after 15 mins by RP-HPLC analysis; format: ADME, cell-free
[2] = target: Kappa-type opioid receptor (Mus musculus) (UniProt P33534); assay: (§1) Antagonist activity at mouse KOR expressed in HEK293 cells coexpressing EGFP/beta-arrestin2 fused NanoLuc assessed as reduction in beta-arrestin2 recruitment at 10 uM preincubated with furimazine for 5 mins followed by peptide addition and measured for 30 mins by BRET assay; format: functional, cell-based
[3] = system: Mus musculus; assay: In vivo antagonist activity at KOR in CD-1 mouse model of U50,488 induced acute thermal nociception at 10 mg/kg, sc pretreated for 24 hrs followed by U50,488 stimulation and measured after 30 to 60 mins by radiant heat tail flick assay; format: functional, organism-based; conditions: time lower 24.5 hrs, time upper […]
[4] = target: Delta-type opioid receptor (Mus musculus) (UniProt P32300); assay: Displacement of [3H]diprenorphine from mouse DOR expressed in HEK293 cell membrane at 10 uM incubated for 1 hr by radioligand displacement assay; format: cell membranes
[5] = target: Mu-type opioid receptor (Mus musculus) (UniProt P42866); assay: Displacement of [3H]diprenorphine from mouse MOR expressed in HEK293 cell membrane at 10 uM incubated for 1 hr by radioligand displacement assay; format: cell membranes
[6] = target: T1, Kappa-type opioid receptor (Mus musculus, UniProt P33534); assay: Competitive antagonist activity at mouse KOR expressed in HEK293 cells at 0.3 to 10 uM preincubated for 30 mins followed by U50,488 addition and measured after 30 mins by fluorescence based schild regression analysis; format: functional, cell-based; conditions: read-out: pA2 (converted)
[7] = target: Kappa-type opioid receptor (Mus musculus) (UniProt P33534); assay: Antagonist activity at KOR in C57BL/6 mouse DRG neurons assessed as inhibition of U50,488 induced calcium mobilization at 1 to 10 uM preincubated with compound followed by U50,488 addition and measured for 12 mins by single cell calcium microfluorimetry analysis; format: functional, cell-based; conditions: DRG neuron, filed as antagonist, dose 1-10 µM
[8] = system: Mus musculus; assay: In vivo antagonist activity at KOR in CD-1 mouse model of U50,488 induced acute thermal nociception at 20 mg/kg, sc pretreated for 15 mins followed by U50,488 stimulation and measured after 30 to 60 mins by radiant heat tail flick assay; format: functional, organism-based; conditions: time 45-75 min
[9] = system: Mus musculus; assay: In vivo antagonist activity at KOR in CD-1 mouse model assessed as reversal of U50,488 induced motor impairment by measuring increase in latency to fall at 20 mg/kg, sc pretreated for 15 mins followed by U50,488 stimulation and measured at 30 mins by rotarod assay; format: functional, organism-based; conditions: time 45.0 min
[10] = target: T1, Kappa-type opioid receptor; assay: Displacement of [3H]diprenorphine from mouse KOR expressed in HEK293 cell membrane assessed as inhibition constant incubated for 1 hr by radioligand displacement assay; format: cell membranes
[11] = target: Kappa-type opioid receptor (Mus musculus) (UniProt P33534); assay: Antagonist activity at mouse KOR expressed in HEK293 cells assessed as forskolin-induced adenylyl cyclase-dependent cAMP formation at 10 uM incubated for 30 mins by HTRF analysis; format: functional, cell-based; conditions: filed as antagonist
[12] = target: Kappa-type opioid receptor (Mus musculus) (UniProt P33534); assay: as §1, with “recruitment by measuring residual BRET signal” for “recruitment”, “assay relative to control” for “assay”; format: functional, cell-based; conditions: filed as antagonist
[13] = target: T1, Kappa-type opioid receptor; assay: Modulation of mouse KOR expressed in HEK293 cells assessed as inhibition of forskolin-induced adenylyl cyclase-dependent cAMP formation incubated for 30 mins by HTRF analysis; format: functional, cell-based
[14] = target: T1, Kappa-type opioid receptor; assay: Partial agonist activity at mouse KOR expressed in HEK293 cells assessed as inhibition of forskolin-induced adenylyl cyclase-dependent cAMP formation incubated for 30 mins by HTRF analysis; format: functional, cell-based

SMILES | Stability [1] | Activity [2] | Activity [4] | Activity [5] | Ki [10] [nM] | Activity [11] | Activity ([2]; filed as antagonist) | also measured
CC[C@H](C)[C@H](NC(=O)[C@H](CCCN=C(N)N)NC(=O)[C@H](CCCN=C(N)N)NC(=O)[C@H](CC(C)C)NC(=O)[C@H](Cc1ccccc1)NC(=O)CNC(=O)CNC(=O)[C@@H](N)Cc1ccc(O)cc1)C(=O)N[C@@H](CCCN=C(N)N)C(=O)N1CCC[C@H]1C(=O)N[C@@H](CCCCN)C(=O)N[C@@H](CC(C)C)C(=O)N[C@@H](CCCCN)C(N)=O | Unstable | inactive |  |  |  |  |  | 
Oc1ccc2c3c1O[C@H]1c4[nH]c5c(c4C[C@@]4(O)[C@@H](C2)N(CC2CC2)CC[C@]314)C[C@@]1(O)[C@H]2Cc3ccc(O)c4c3[C@@]1(CCN2CC1CC1)[C@H]5O4 |  |  |  |  |  |  |  | Activity [3]: Active
CC(C)C[C@H](NC(=O)[C@H](CCCCN)NC(=O)[C@@H]1CCCN1C(=O)[C@H](CCCNC(=N)N)NC(=O)[C@@H]1CSCSCCC(=O)N[C@@H](Cc2ccc(O)cc2)C(=O)NCC(=O)NCC(=O)N[C@@H](Cc2ccccc2)C(=O)N[C@@H](CC(C)C)C(=O)N[C@@H](CCCNC(=N)N)C(=O)N[C@@H](CCCNC(=N)N)C(=O)N1)C(=O)N[C@@H](CCCCN)C(N)=O ([Mpa]YGGFLRRCRPKLK-NH2; linker 1-9 via CH2) |  |  | inactive | inactive | 6.8 | Active |  | Kb [6]: 31.6 nM; Activity [7]: Active; Activity [8]: Active; Activity [9]: Active; Activity [12]: 5%
CC(C)C[C@H](NC(=O)[C@H](CCCCN)NC(=O)[C@@H]1CCCN1C(=O)[C@H](CCCNC(=N)N)NC(=O)[C@@H]1CSCC(=O)CSCCC(=O)N[C@@H](Cc2ccc(O)cc2)C(=O)NCC(=O)NCC(=O)N[C@@H](Cc2ccccc2)C(=O)N[C@@H](CC(C)C)C(=O)N[C@@H](CCCNC(=N)N)C(=O)N[C@@H](CCCNC(=N)N)C(=O)N1)C(=O)N[C@@H](CCCCN)C(N)=O ([Mpa]YGGFLRRCRPKLK-NH2; linker 1-9 via CH2COCH2) |  |  | inactive | inactive | 32 |  |  | EC50 [13]: 740 nM; Activity [12]: 25%
CC(C)C[C@H](NC(=O)[C@H](CCCCN)NC(=O)[C@@H]1CCCN1C(=O)[C@H](CCCNC(=N)N)NC(=O)[C@@H]1CSSCCC(=O)N[C@@H](Cc2ccc(O)cc2)C(=O)NCC(=O)NCC(=O)N[C@@H](Cc2ccccc2)C(=O)N[C@@H](CC(C)C)C(=O)N[C@@H](CCCNC(=N)N)C(=O)N[C@@H](CCCNC(=N)N)C(=O)N1)C(=O)N[C@@H](CCCCN)C(=O)O ([Mpa]YGGFLRRCRPKLK-OH; disulfide 1-9) |  | inactive |  |  |  |  |  | 
CC(C)C[C@H](NC(=O)[C@H](CCCCN)NC(=O)[C@@H]1CCCN1C(=O)[C@H](CCCNC(=N)N)NC(=O)[C@@H]1CSCSCCC(=O)N[C@@H](Cc2ccc(O)cc2)C(=O)NCC(=O)NCC(=O)N[C@@H](Cc2ccccc2)C(=O)N[C@@H](CC(C)C)C(=O)N[C@@H](CCCNC(=N)N)C(=O)N[C@@H](CCCNC(=N)N)C(=O)N1)C(=O)N[C@@H](CCCCN)C(=O)O ([Mpa]YGGFLRRCRPKLK-OH; linker 1-9 via CH2) | Unstable |  | inactive | inactive | 77 | Active | Active | 
CC(C)C[C@H](NC(=O)[C@H](CCCCN)NC(=O)[C@@H]1CCCN1C(=O)[C@H](CCCNC(=N)N)NC(=O)[C@@H]1CSCC(=O)CSCCC(=O)N[C@@H](Cc2ccc(O)cc2)C(=O)NCC(=O)NCC(=O)N[C@@H](Cc2ccccc2)C(=O)N[C@@H](CC(C)C)C(=O)N[C@@H](CCCNC(=N)N)C(=O)N[C@@H](CCCNC(=N)N)C(=O)N1)C(=O)N[C@@H](CCCCN)C(=O)O ([Mpa]YGGFLRRCRPKLK-OH; linker 1-9 via CH2COCH2) | Unstable |  | inactive | inactive | 91 |  | Active | EC50 [14]: 270 nM
CC[C@H](C)[C@@H]1NC(=O)[C@H](CCCNC(=N)N)NC(=O)[C@H](CCCNC(=N)N)NC(=O)[C@H](CC(C)C)NC(=O)[C@H](Cc2ccccc2)NC(=O)CNC(=O)CNC(=O)[C@H](Cc2ccc(O)cc2)NC(=O)CCSCSC[C@@H](C(=O)N[C@@H](CCCCN)C(=O)N[C@@H](CC(C)C)C(=O)N[C@@H](CCCCN)C(N)=O)NC(=O)[C@H](CCCNC(=N)N)NC1=O ([Mpa]YGGFLRRIRCKLK-NH2; linker 1-11 via CH2) |  |  | inactive | inactive |  |  |  | 
CC[C@H](C)[C@@H]1NC(=O)[C@H](CCCNC(=N)N)NC(=O)[C@H](CCCNC(=N)N)NC(=O)[C@H](CC(C)C)NC(=O)[C@H](Cc2ccccc2)NC(=O)CNC(=O)CNC(=O)[C@H](Cc2ccc(O)cc2)NC(=O)CCSCSC[C@@H](C(=O)N[C@@H](CCCCN)C(=O)N[C@@H](CC(C)C)C(=O)N[C@@H](CCCCN)C(=O)O)NC(=O)[C@H](CCCNC(=N)N)NC1=O ([Mpa]YGGFLRRIRCKLK-OH; linker 1-11 via CH2) | Unstable |  | inactive | inactive |  | Active | Active | 
CC[C@H](C)[C@@H]1NC(=O)[C@H](CCCNC(=N)N)NC(=O)[C@H](CCCNC(=N)N)NC(=O)[C@H](CC(C)C)NC(=O)[C@H](Cc2ccccc2)NC(=O)CNC(=O)CNC(=O)[C@H](Cc2ccc(O)cc2)NC(=O)CCSCC(=O)CSC[C@@H](C(=O)N[C@@H](CCCCN)C(=O)N[C@@H](CC(C)C)C(=O)N[C@@H](CCCCN)C(=O)O)NC(=O)[C@H](CCCNC(=N)N)NC1=O ([Mpa]YGGFLRRIRCKLK-OH; linker 1-11 via CH2COCH2) |  | inactive |  |  |  |  |  | 
